The target of this test is T1, Human neutrophil elastase (Homo sapiens, UniProt P08246).
T1 construct: purchased Calbiochem 324681
T1 sequence (P08246 30-267): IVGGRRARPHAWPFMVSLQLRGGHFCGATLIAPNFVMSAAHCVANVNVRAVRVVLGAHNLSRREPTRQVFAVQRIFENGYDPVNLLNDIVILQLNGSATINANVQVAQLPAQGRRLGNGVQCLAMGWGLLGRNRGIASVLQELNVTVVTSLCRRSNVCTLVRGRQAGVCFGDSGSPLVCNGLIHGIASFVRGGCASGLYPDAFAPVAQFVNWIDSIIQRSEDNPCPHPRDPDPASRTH
Kind of test: Human Neutrophil Elastase Assay. It counts as biochemical. The conditions noted are these: Neutrophil Elastase assay; substrate MeOSuc-Ala-Ala-Pro-Val-AMC 250 μM; 15 min preincubation, 60 min incubation at room temperature; pH 7.5. The procedure, abridged:
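Run in 100 mM Tris, 500 mM NaCl, pH 7.5 with 0.01% BSA, with compounds prediluted in DMSO then buffer (5% DMSO final). Fluorescence was read at 380 nm excitation/460 nm emission after enzyme inactivation. Values were normalised to inactivated-enzyme (0%) and uninhibited-enzyme (100%) controls.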

Here are results for 44 compounds from patent USRE46630E1, “Substituted 4-pyridones and their use as inhibitors of neutrophil elastase activity” (Boehringer Ingelheim International GmbH, priority 2012, dated 2017).

Each structure is given as a SMILES string. Where only a bound is given, the exact number is not on record here.

For orientation: IC50 means the midpoint of a concentration-inhibition curve. For the compound `Cc1c(-c2ccnc(C(F)(F)F)c2)c(=O)c(C(=O)NC2CCCC2O)cn1C(C)c1ccc(C#N)cc1` (centres unmarked) [Example 9.36], the midpoint of inhibition, the IC50, lay at 0.0339 µM.
In the case of `Cc1c(-c2ccnc(C(F)(F)F)c2)c(=O)c(C(=O)NCC2CCCCO2)cn1C(C)c1ccc(C#N)cc1` (centres unmarked) [Example 9.37] it was 0.0329 µM; in that of `Cc1c(-c2ccnc(C(F)(F)F)c2)c(=O)c(C(=O)NCC2(C)COC2)cn1C(C)c1ccc(C#N)cc1` (centres unmarked) [Example 9.38], 0.0333 µM; in that of `Cc1c(-c2ccnc(C(F)(F)F)c2)c(=O)c(C(=O)NC2CC3CCC2O3)cn1C(C)c1ccc(C#N)cc1` (centres unmarked) [Example 9.39], 0.0583 µM.
Compound `Cc1c(-c2ccnc(C(F)(F)F)c2)c(=O)c(C(=O)NC2COCC2O)cn1C(C)c1ccc(C#N)cc1` (centres unmarked) [Example 9.40] displayed an IC50 of 0.0694 µM.
`Cc1c(-c2ccnc(C(F)(F)F)c2)c(=O)c(C(=O)NC2CCCC2O)cn1C(C)c1ccc(C#N)cc1` (centres unmarked) [Example 9.41] gave an IC50 of 0.1 µM.
Regarding `Cc1c(-c2ccnc(C(F)(F)F)c2)c(=O)c(C(=O)NC2COCC2O)cn1C(C)c1ccc(C#N)cc1` (centres unmarked) [Example 9.42], the IC50 came to 0.0299 µM.
For `Cc1c(-c2ccnc(C(F)(F)F)c2)c(=O)c(C(=O)NCC(F)(F)F)cn1C(C)c1ccc(C#N)cc1` (centres unmarked) [Example 9.43], the IC50 is 0.0115 µM.
In the case of `Cc1c(-c2ccnc(C(F)(F)F)c2)c(=O)c(C(=O)NCCF)cn1C(C)c1ccc(C#N)cc1` (centres unmarked) [Example 9.44] it was 0.0098 µM; in that of `Cc1c(-c2ccnc(C(F)(F)F)c2)c(=O)c(C(=O)NC2(C#N)CC2)cn1C(C)c1ccc(C#N)cc1` (centres unmarked) [Example 9.45], 0.0053 µM; in that of `Cc1c(-c2ccnc(C(F)(F)F)c2)c(=O)c(C(=O)NC(C)(C)C#N)cn1C(C)c1ccc(C#N)cc1` (centres unmarked) [Example 9.46], 0.094 µM.
`Cc1c(-c2ccnc(C(F)(F)F)c2)c(=O)c(C(=O)NCC2CC(O)C2)cn1C(C)c1ccc(C#N)cc1` (centres unmarked) [Example 9.47] came in with an IC50 of 0.0149 µM.
In the case of `Cc1c(-c2ccnc(C(F)(F)F)c2)c(=O)c(C(=O)NCC2CC(O)C2)cn1C(C)c1ccc(C#N)cc1` (centres unmarked) [Example 9.48], inhibition was half-maximal at 0.0173 µM (IC50).
Turning to `COCC(C)(C#N)NC(=O)c1cn(C(C)c2ccc(C#N)cc2)c(C)c(-c2ccnc(C(F)(F)F)c2)c1=O` (centres unmarked) [Example 9.49], the IC50 was 0.15 µM.
In the case of `Cc1c(-c2ccnc(C(F)(F)F)c2)c(=O)c(C(=O)NC(C)C#N)cn1C(C)c1ccc(C#N)cc1` (centres unmarked) [Example 9.50] it was 0.0046 µM; in that of `C=CCNC(=O)c1cn(C(C)c2ccc(C#N)cc2)c(C)c(-c2ccnc(C(F)(F)F)c2)c1=O` (centres unmarked) [Example 9.51], 0.006 µM.
Compound `Cc1c(-c2ccnc(C(F)(F)F)c2)c(=O)c(C(=O)NCC(C)(C)C)cn1C(C)c1ccc(C#N)cc1` (centres unmarked) [Example 9.52] gave an IC50 of 0.42 µM.
In the case of `Cc1c(-c2ccnc(C(F)(F)F)c2)c(=O)c(C(=O)NCC(C)C)cn1C(C)c1ccc(C#N)cc1` (centres unmarked) [Example 9.53] it was 0.023 µM; in that of `Cc1c(-c2ccnc(C(F)(F)F)c2)c(=O)c(C(=O)NCCC#N)cn1C(C)c1ccc(C#N)cc1` (centres unmarked) [Example 9.54], 0.0041 µM; in that of `CCNC(=O)c1cn(C(C)c2ccc(C#N)cc2)c(C)c(-c2ccnc(C(F)(F)F)c2)c1=O` (centres unmarked) [Example 9.56], 0.0061 µM.
With `COCCNC(=O)c1cn(C(C)c2ccc(C#N)cc2)c(C)c(-c2ccnc(C(F)(F)F)c2)c1=O` (centres unmarked) [Example 9.57] the figure was 0.0052 µM; with `CCOCCNC(=O)c1cn(C(C)c2ccc(C#N)cc2)c(C)c(-c2ccnc(C(F)(F)F)c2)c1=O` (centres unmarked) [Example 9.58], 0.0054 µM; with `COCCCNC(=O)c1cn(C(C)c2ccc(C#N)cc2)c(C)c(-c2ccnc(C(F)(F)F)c2)c1=O` (centres unmarked) [Example 9.59], 0.0075 µM.
In turn, `Cc1c(-c2ccnc(C(F)(F)F)c2)c(=O)c(C(=O)NCCC(C)O)cn1C(C)c1ccc(C#N)cc1` (centres unmarked) [Example 9.60] had an IC50 of 0.0057 µM.
With `Cc1c(-c2ccnc(C(F)(F)F)c2)c(=O)c(C(=O)NCC(C)O)cn1C(C)c1ccc(C#N)cc1` (centres unmarked) [Example 9.61] the figure was 0.0086 µM; with `Cc1c(-c2ccnc(C(F)(F)F)c2)c(=O)c(C(=O)NCC(C)O)cn1C(C)c1ccc(C#N)cc1` (centres unmarked) [Example 9.62], 0.012 µM; with `Cc1c(-c2ccnc(C(F)(F)F)c2)c(=O)c(C(=O)NCC(C)(C)O)cn1C(C)c1ccc(C#N)cc1` (centres unmarked) [Example 9.63], 0.0375 µM.
Consider `Cc1c(-c2cccc(C(F)(F)F)c2)c(=O)c(C(=O)NCC[N+](C)(C)C)cn1Cc1ccc(C#N)cc1` [Example 12.1, (2-{[1-(4-Cyano-benzyl)-6-methyl-4-oxo-5-(3-trifluoromethyl-phenyl)-1,4-dihydro-pyridine-3-carbonyl]-amino}-ethyl)-trimethyl-ammonium chloride], for which the IC50 stood at 0.0359 µM.
With `Cc1c(-c2cccc(C(F)(F)F)c2)c(=O)c(C(=O)NCCC[N+](C)(C)C)cn1Cc1ccc(C#N)cc1` [Example 12.2, (3-{[1-(4-Cyano-benzyl)-6-methyl-4-oxo-5-(3-trifluoromethyl-phenyl)-1,4-dihydro-pyridine-3-carbonyl]-amino}-propyl)-trimethyl-ammonium chloride], 0.0495 µM corresponded to half-maximal inhibition (IC50).
On to `Cc1c(-c2cccc(C(F)(F)F)c2)c(=O)c(C(=O)NCC2CC[N+](C)(C)CC2)cn1Cc1ccc(C#N)cc1` [Example 12.3, 4-({[1-(4-Cyano-benzyl)-6-methyl-4-oxo-5-(3-trifluoromethyl-phenyl)-1,4-dihydro-pyridine-3-carbonyl]-amino}-methyl)-1,1-dimethyl-piperidinium chloride], for which the IC50 stood at 0.0597 µM.
In the case of `Cc1c(-c2cccc(C(F)(F)F)c2)c(=O)c(C(=O)NCC2CCN(C(=O)C[N+](C)(C)C)CC2)cn1Cc1ccc(C#N)cc1` [Example 12.4, {2-[4-({[1-(4-Cyano-benzyl)-6-methyl-4-oxo-5-(3-trifluoromethyl-phenyl)-1,4-dihydro-pyridine-3-carbonyl]-amino}-methyl)-piperidin-1-yl]-2-oxo-ethyl}-trimethyl-ammonium chloride] it was 0.0144 µM.
As to `CS(=O)(=O)c1ccc(CNC(=O)c2cn(Cc3ccc(C#N)cc3)cc(-c3cccc(C(F)(F)F)c3)c2=O)cc1` [Example 13.1, 1-(4-Cyano-benzyl)-4-oxo-5-(3-trifluoromethyl-phenyl)-1,4-dihydro-pyridine-3-carboxylic acid 4-methanesulfonyl-benzylamide], half-maximal inhibition (IC50) was put at 0.0066 µM.
Compound `CS(=O)(=O)c1ccc(CNC(=O)c2cn(Cc3ccc(C#N)cc3)cc(-c3cccc(C(F)(F)F)c3)c2=O)nc1` [Example 13.2, 1-(4-Cyano-benzyl)-4-oxo-5-(3-trifluoromethyl-phenyl)-1,4-dihydro-pyridine-3-carboxylic acid (5-methanesulfonyl-pyridin-2-ylmethyl)-amide] showed an IC50 of 0.0052 µM.
With `Cc1c(-c2cccc(C(F)(F)F)c2)c(=O)c(C(=O)NCc2ccc(S(C)(=O)=O)c[n+]2[O-])cn1Cc1ccc(C#N)cc1` [Example 14, Pyridin-N-oxide of example 4.1] the figure was below 0.001 µM; with `CNC(=O)c1cn(C(C)c2ccc(C#N)cn2)c(C)c(-c2cccc(C(F)F)c2)c1=O` (centres unmarked) [Example 16, 1-[1-(5-Cyano-pyridin-2-yl)-ethyl]-5-(3-difluoromethyl-phenyl)-6-methyl-4-oxo-1,4-dihydro-pyridine-3-carboxylic acid methylamide], 0.0099 µM; with `CCNC(=O)c1cn(C(C)c2ccc(C#N)cn2)c(C)c(-c2cccc(C(F)(F)F)c2)c1=O` (centres unmarked) [Example 17, 1-[1-(5-Cyano-pyridin-2-yl)-ethyl]-6-methyl-4-oxo-5-(3-trifluoromethyl-phenyl)-1,4-dihydro-pyridine-3-carboxylic acid ethylamide], 0.0045 µM.
The compound `CCNC(=O)c1cn(C(C)c2ccc(C#N)cn2)c(C)c(-c2cccc(C(F)F)c2)c1=O` (centres unmarked) [Example 18, 1-[1-(5-Cyano-pyridin-2-yl)-ethyl]-5-(3-difluoromethyl-phenyl)-6-methyl-4-oxo-1,4-dihydro-pyridine-3-carboxylic acid ethylamide] registered an IC50 of 0.0054 µM.
The compound `CCNC(=O)c1cn(C(C)c2ccc(C#N)cn2)c(C)c(-c2ccnc(C(F)(F)F)c2)c1=O` (centres unmarked) [Example 19, 1-[1-(5-Cyano-pyridin-2-yl)-ethyl]-2-methyl-4-oxo-2′-trifluoromethyl-1,4-dihydro-[3,4′]bipyridinyl-5-carboxylic acid ethylamide] came in with an IC50 of 0.0222 µM.
For the compound `CNC(=O)c1cn(Cc2ccc(C#N)cc2S(C)(=O)=O)c(C)c(-c2cccc(C(F)(F)F)c2)c1=O` [Example 20], the IC50 is 0.0086 µM.
With `CCNC(=O)c1cn(Cc2ccc(C#N)cc2S(C)(=O)=O)c(C)c(-c2cccc(C(F)(F)F)c2)c1=O` [Example 21] the figure was 0.0046 µM; with `Cc1nnc(CNC(=O)c2cn(Cc3ccc(C#N)cc3S(C)(=O)=O)c(C)c(-c3cccc(C(F)(F)F)c3)c2=O)o1` [Example 22], 0.0028 µM.
In the case of `Cc1c(-c2cccc(C(F)(F)F)c2)c(=O)c(C(=O)NCCCO)cn1Cc1ccc(C#N)cc1S(C)(=O)=O` [Example 23] it was 0.0044 µM; in that of `Cc1noc(CNC(=O)c2cn(Cc3ccc(C#N)cc3S(C)(=O)=O)c(C)c(-c3cccc(C(F)(F)F)c3)c2=O)n1` [Example 24], 0.0048 µM; in that of `CCCS(=O)(=O)c1cc(C#N)ccc1Cn1cc(C(=O)NC)c(=O)c(-c2cccc(C(F)(F)F)c2)c1C` [Example 25, 1-[4-Cyano-2-(propane-1-sulfonyl)-benzyl]-6-methyl-4-oxo-5-(3-trifluoromethyl-phenyl)-1,4-dihydro-pyridine-3-carboxylic acid methylamide], 0.014 µM.
